Records with an inconclusive call do not appear.
Test system: BDF1 mice, M5076 sarcoma s.c., survival/tumor T/C
Experiment: NCI In Vivo Anticancer Drug Screen. Data for tumor model Sarcoma M5076 (subcutaneous) in B6D2F1 (BDF1) mice
Description: The antitumor activity of compounds was measured in mice bearing transplantable tumors. Survival or tumor size were measured and the results are expressed as the measurement made in the treated group (T) divided by the measurement made in the vehicle treated control group (C). The tumor model used in this assay is Sarcoma M5076 (subcutaneous) in B6D2F1 (BDF1) mice

Question: `CC(=O)O[C@H]1C(=O)[C@@]2(C)[C@H]([C@H](OC(=O)c3ccccc3)[C@]3(O)C[C@H](OC(=O)[C@H](O)[C@@H](NC(=O)c4ccccc4)c4ccccc4)C(C)=C1C3(C)C)[C@]1(OC(C)=O)CO[C@@H]1C[C@@H]2O` was tested. Which T/C (endpoint: mean tumor weight, dose: 10.0 mg/kg/injection, schedule: Q02DX011 (ip), vehicle: Klucel (hydroxypropylcellulose) (HPC), higher = larger tumour) did it give?
Answer: The T/C was 103 % of control.

Question: And the T/C (endpoint: mean tumor weight, dose: 20.0 mg/kg/injection, schedule: Q02DX011 (ip), vehicle: Klucel (hydroxypropylcellulose) (HPC), higher = larger tumour)?
Answer: Its T/C is 78 % of control.

Question: What about the T/C (endpoint: mean tumor weight, dose: 40.0 mg/kg/injection, schedule: Q02DX011 (ip), vehicle: Klucel (hydroxypropylcellulose) (HPC), higher = larger tumour) of the same molecule?
Answer: Its T/C is 57 % of control.

Question: What about the T/C (endpoint: median survival time, dose: 1.32 mg/kg/injection, schedule: Q02DX011 (ip), vehicle: Klucel (hydroxypropylcellulose) (HPC), higher = longer survival) of the same molecule?
Answer: Its T/C is 108 % of control.

Question: What about the T/C (endpoint: median survival time, dose: 1.32 mg/kg/injection, schedule: Q02DX011 (ip), vehicle: other, higher = longer survival) of the same molecule?
Answer: The T/C was 115 % of control.

Question: And the T/C (endpoint: median survival time, dose: 1.98 mg/kg/injection, schedule: Q02DX011 (ip), vehicle: Klucel (hydroxypropylcellulose) (HPC), higher = longer survival)?
Answer: The T/C was 111 % of control.

Question: And the T/C (endpoint: median survival time, dose: 1.98 mg/kg/injection, schedule: Q02DX011 (ip), vehicle: other, higher = longer survival)?
Answer: The T/C was 109 % of control.

Question: What about the T/C (endpoint: median survival time, dose: 2.5 mg/kg/injection, schedule: Q04DX003 (ip), vehicle: Klucel (hydroxypropylcellulose) (HPC), higher = longer survival) of the same molecule?
Answer: The T/C was 85 % of control.

Question: And the T/C (endpoint: median survival time, dose: 2.96 mg/kg/injection, schedule: Q02DX011 (ip), vehicle: Klucel (hydroxypropylcellulose) (HPC), higher = longer survival)?
Answer: The T/C was 103 % of control.

Question: And the T/C (endpoint: median survival time, dose: 4.44 mg/kg/injection, schedule: Q02DX011 (ip), vehicle: Klucel (hydroxypropylcellulose) (HPC), higher = longer survival)?
Answer: Its T/C is 111 % of control.

Question: And the T/C (endpoint: median survival time, dose: 4.44 mg/kg/injection, schedule: Q02DX011 (ip), vehicle: other, higher = longer survival)?
Answer: Its T/C is 115 % of control.

Question: And the T/C (endpoint: median survival time, dose: 5.0 mg/kg/injection, schedule: Q04DX003 (ip), vehicle: Klucel (hydroxypropylcellulose) (HPC), higher = longer survival)?
Answer: Its T/C is 103 % of control.

Question: And the T/C (endpoint: median survival time, dose: 6.67 mg/kg/injection, schedule: Q02DX011 (ip), vehicle: Klucel (hydroxypropylcellulose) (HPC), higher = longer survival)?
Answer: The T/C was 119 % of control.

Question: What about the T/C (endpoint: median survival time, dose: 6.67 mg/kg/injection, schedule: Q02DX011 (ip), vehicle: other, higher = longer survival) of the same molecule?
Answer: The T/C was 112 % of control.

Question: And the T/C (endpoint: median survival time, dose: 10.0 mg/kg/injection, schedule: Q02DX011 (ip), vehicle: Klucel (hydroxypropylcellulose) (HPC), higher = longer survival)?
Answer: The T/C was 110 % of control.

Question: And the T/C (endpoint: median survival time, dose: 10.0 mg/kg/injection, schedule: Q02DX011 (ip), vehicle: other, higher = longer survival)?
Answer: The T/C was 106 % of control.

Question: And the T/C (endpoint: median survival time, dose: 10.0 mg/kg/injection, schedule: Q04DX003 (ip), vehicle: Klucel (hydroxypropylcellulose) (HPC), higher = longer survival)?
Answer: Its T/C is 109 % of control.

Question: And the T/C (endpoint: median survival time, dose: 15.0 mg/kg/injection, schedule: Q02DX011 (ip), vehicle: Klucel (hydroxypropylcellulose) (HPC), higher = longer survival)?
Answer: The T/C was 91 % of control.

Question: And the T/C (endpoint: median survival time, dose: 15.0 mg/kg/injection, schedule: Q02DX011 (ip), vehicle: other, higher = longer survival)?
Answer: Its T/C is 107 % of control.

Question: What about the T/C (endpoint: median survival time, dose: 22.5 mg/kg/injection, schedule: Q02DX011 (ip), vehicle: other, higher = longer survival) of the same molecule?
Answer: Its T/C is 108 % of control.

Question: What about the T/C (endpoint: median tumor weight (est.), dose: 1.32 mg/kg/injection, schedule: Q02DX011 (ip), vehicle: Klucel (hydroxypropylcellulose) (HPC), higher = larger tumour) of the same molecule?
Answer: The T/C was 83 % of control.

Question: And the T/C (endpoint: median tumor weight (est.), dose: 1.32 mg/kg/injection, schedule: Q02DX011 (ip), vehicle: other, higher = larger tumour)?
Answer: The T/C was 106 % of control.

Question: And the T/C (endpoint: median tumor weight (est.), dose: 1.98 mg/kg/injection, schedule: Q02DX011 (ip), vehicle: Klucel (hydroxypropylcellulose) (HPC), higher = larger tumour)?
Answer: The T/C was 73 % of control.

Question: What about the T/C (endpoint: median tumor weight (est.), dose: 1.98 mg/kg/injection, schedule: Q02DX011 (ip), vehicle: other, higher = larger tumour) of the same molecule?
Answer: The T/C was 96 % of control.

Question: What about the T/C (endpoint: median tumor weight (est.), dose: 2.96 mg/kg/injection, schedule: Q02DX011 (ip), vehicle: Klucel (hydroxypropylcellulose) (HPC), higher = larger tumour) of the same molecule?
Answer: The T/C was 87 % of control.

Question: What about the T/C (endpoint: median tumor weight (est.), dose: 2.96 mg/kg/injection, schedule: Q02DX011 (ip), vehicle: other, higher = larger tumour) of the same molecule?
Answer: Its T/C is 87 % of control.

Question: What about the T/C (endpoint: median tumor weight (est.), dose: 4.44 mg/kg/injection, schedule: Q02DX011 (ip), vehicle: Klucel (hydroxypropylcellulose) (HPC), higher = larger tumour) of the same molecule?
Answer: Its T/C is 62 % of control.

Question: And the T/C (endpoint: median tumor weight (est.), dose: 4.44 mg/kg/injection, schedule: Q02DX011 (ip), vehicle: other, higher = larger tumour)?
Answer: Its T/C is 76 % of control.

Question: What about the T/C (endpoint: median tumor weight (est.), dose: 6.67 mg/kg/injection, schedule: Q02DX011 (ip), vehicle: Klucel (hydroxypropylcellulose) (HPC), higher = larger tumour) of the same molecule?
Answer: The T/C was 58 % of control.

Question: And the T/C (endpoint: median tumor weight (est.), dose: 6.67 mg/kg/injection, schedule: Q02DX011 (ip), vehicle: other, higher = larger tumour)?
Answer: Its T/C is 79 % of control.

Question: What about the T/C (endpoint: median tumor weight (est.), dose: 10.0 mg/kg/injection, schedule: Q02DX011 (ip), vehicle: other, higher = larger tumour) of the same molecule?
Answer: The T/C was 63 % of control.

Question: What about the T/C (endpoint: median tumor weight (est.), dose: 15.0 mg/kg/injection, schedule: Q02DX011 (ip), vehicle: Klucel (hydroxypropylcellulose) (HPC), higher = larger tumour) of the same molecule?
Answer: The T/C was 73 % of control.

Question: What about the T/C (endpoint: median tumor weight (est.), dose: 15.0 mg/kg/injection, schedule: Q02DX011 (ip), vehicle: other, higher = larger tumour) of the same molecule?
Answer: The T/C was 59 % of control.

Question: And the T/C (endpoint: median tumor weight (est.), dose: 20.0 mg/kg/injection, schedule: Q02DX011 (ip), vehicle: Klucel (hydroxypropylcellulose) (HPC), higher = larger tumour)?
Answer: The T/C was 63 % of control.

Question: What about the T/C (endpoint: median tumor weight (est.), dose: 22.5 mg/kg/injection, schedule: Q02DX011 (ip), vehicle: other, higher = larger tumour) of the same molecule?
Answer: The T/C was 38 % of control.

Question: And the T/C (endpoint: median tumor weight (est.), dose: 40.0 mg/kg/injection, schedule: Q02DX011 (ip), vehicle: Klucel (hydroxypropylcellulose) (HPC), higher = larger tumour)?
Answer: Its T/C is 31 % of control.
